Ends that are not written are not given here.
Experiments:
[1] = tested on: C57B1/6 heart allograft in CBA mice; assay: Vascularized fully mismatched heterotopic heart allograft model; format: in vivo, mouse; details: intraperitoneal
Description: The immunosuppressive activity of the bc peptides was evaluated in a vascularized fully mismatched mouse heart allograft model. Specifically, abdominal heterotopic heart transplantation was performed as described previously by Ono and Lindsey, J. Thoracic Cardiovasc. Surg. 7:225 (1969)). CBA mice recipients of C57B1/6 hearts were treated daily with various doses of peptide following organ transplantation. Peptides were dissolved in DMSO and diluted in PBS (final DMSO concentration was 10%) before intraperitoneal administration. Animals were treated starting at the day of transplantation until day five or nine. Graft survival was monitored daily by direct palpation, and rejection was defined as termination of palpable cardiac contractility. The statistical significance of prolongation of heart allograft survival was calculated using the Mann-Whitney test.

recombinant hsc70 = biological target: T1, recombinant hsc70 (Bos taurus, UniProt P19120); assay: hsc70 binding ELISA / competition with biotinylated-2702.75-84
T1 construct: purchased Stressgen, Victoria, Canada
T1 sequence (P19120 2-650 limits assumed): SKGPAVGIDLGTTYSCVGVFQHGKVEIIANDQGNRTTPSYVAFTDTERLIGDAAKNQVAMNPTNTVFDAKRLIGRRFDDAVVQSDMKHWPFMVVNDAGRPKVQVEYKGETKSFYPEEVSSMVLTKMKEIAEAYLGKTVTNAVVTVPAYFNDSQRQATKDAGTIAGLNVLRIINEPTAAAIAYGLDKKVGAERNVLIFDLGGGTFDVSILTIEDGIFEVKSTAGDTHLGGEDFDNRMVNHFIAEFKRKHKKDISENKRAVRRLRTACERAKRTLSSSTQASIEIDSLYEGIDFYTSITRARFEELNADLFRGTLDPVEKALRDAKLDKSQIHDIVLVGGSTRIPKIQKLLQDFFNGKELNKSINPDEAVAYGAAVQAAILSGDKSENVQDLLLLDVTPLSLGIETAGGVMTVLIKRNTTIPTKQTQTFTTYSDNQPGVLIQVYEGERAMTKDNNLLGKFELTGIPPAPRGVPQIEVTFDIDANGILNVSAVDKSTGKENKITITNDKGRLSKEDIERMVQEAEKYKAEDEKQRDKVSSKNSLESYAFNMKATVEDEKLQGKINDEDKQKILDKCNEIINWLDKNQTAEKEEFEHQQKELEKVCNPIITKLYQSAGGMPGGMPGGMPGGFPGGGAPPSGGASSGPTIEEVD
Description: To determine if bc peptides are capable of binding to hsc70, protein binding assays were performed. Specifically, peptide 2702.75-84 was synthesized in a biotinylated form with biotin attached to the N-terminus via a six carbon spacer. ELISA plates (Nunc Maxisorb, Nunc, USA) were coated with 100 ng/ml of recombinant hsc70 (Stressgen, Victoria, Canada) in 100 mM Na-citrate buffer, pH 4.0 overnight at 4° C. Subsequently, remaining binding sites were blocked by incubating the plates with PBS/0.1% Tween 20 (PBS/Tween; Sigma) for 2 hours at room temperature. Unbound material was removed by washing the plates three times with PBS/Tween. Following the addition of biotinylated 2702.75-84 in PBS/Tween/1% DMSO, the plates were incubated for 2 hours at room temperature, washed three times, incubated with 0.1 μg/ml streptavidin conjugated to horseradish peroxidase (streptavidin-HRP) (Jackson ImmunoResearch Laboratories, West Grove, Pa.) and washed again. Bound streptavidin-HRP was detected using 3 mg/ml o-phenylenediamine (OPD; Sigma) in substrate buffer (SangStat, Menlo Park, Calif.). The reaction was stopped by addition of 1M HCl and absorbance (OD490-OD605) was measured using an ELISA plate reader. Binding of unlabeled peptide was measured in a competition assay. […] Bound biotinylated-2702.75-84 was then detected as described above.

[2] = tested on: C57BL/6 neonatal heart allograft in CBA/J recipient mice; assay: Heterotopic neonatal cardiac transplant into ear pinnae, direct injection into allograft; format: in vivo, mouse
Description: We next sought to determine if local delivery of bc peptides via plasmid-mediated gene transfer could extend in vivo transplant survival in a murine heterotopic cardiac transplant model. Specifically, C57BL/6 donor neonatal hearts were transplanted subcutaneously into the ear pinnae of CBA/J recipient mice, bc peptide, or 20 μg of plasmid DNA encoding the bc peptide of interest, was injected directly into the allograft at the time of transplantation. Survival of the allografts was determined by electrocardiogram monitoring and rejection was determined as the cessation of cardiac electrical activity. Graft survival is expressed in days (mean±SEM). Statistical significance was determined by an unpaired Student's t-test.

[3] = tested on: T-cell proliferation (spleen cells isolated from CBA mice stimulated with anti-CD3 monoclonal antibody); assay: Antiproliferative activity: anti-CD3 stimulated spleen cells, [3H]-TdR incorporation; format: cell-based, mouse; details: 3 days
From the text: Adult 6-8 week old male C57BL6/J (B6, […]), Balb/c(H-2^d) and CBA/J (H-2^k) mice were purchased from the Jackson Laboratory, Bar Harbor, Me. They were kept and maintained in the animal facility in the SangStat Medical Corporation according to NIH guidelines and regulations of the Department of Health.
Peptides were synthesized at synt:em (Nimes, France) using an automated peptide synthesizer and Fmoc chemistry. All peptides were synthesized as amides and then converted to acetate salts. Peptides were purified by preparative reverse phase HPLC and shown to be >95% homogenous by analytical reverse phase HPLC. Amino acid content was confirmed by amino acid analysis. Before use, peptides were first dissolved in 1 volume of DMSO (Sigma) followed by addition of 99 volume of culture medium. The final concentration of DMSO in culture was not greater than 0.25%. […]
Spleen cells isolated from CBA mice were then stimulated (2×10^5/well) with anti-CD3 monoclonal antibody (Pharmingen, San Diego) at a final concentration of 0.1 to 1 μg/ml in 96-well, round-bottom microculture plates (Nunc, Denmark). bc peptides at various concentrations were added at the beginning of the culture. […] Cells were then harvested using a Filtermate 196 Harvester (Packard, Downers Grove, Ill.) and the degree of thymidine incorporation was measured using a TopCount Microplate Scintillation Counter (Packard).

[4] = tested on: T-cell mediated lysis of EL4 target cells by CBA to B6 effector cells; assay: Cytotoxic T-cell activity, 51Cr release assay; format: cell-based, mouse; details: concentrations up to 100 μg/ml, 4-hour incubation
Description: To assay the effect of peptides on cytotoxic T cell activity, CBA to B6 effector cells were prepared following a 6-day culture of 4×10^6 CBA spleen cells with 5×10^6 mitomycin-treated B6 spleen cells in wells of a 24 well plate (Nuncion Delta, Nunc, Denmark) in RPMI-1640 with 10% FBS. Effector cells were then harvested and washed. EL4 (H-2^b), a mouse lymphoma induced in C57BL/6N was used as target cells. Cultured EL4 cells were maintained and sub-cultured once every three days […] Effector (E) and target (T) cells were then added into V-shaped tissue culture plates (Nunc, Denmark) at E:T ratios of 3:1, 10:1, 30:1, 100:1, respectively. Peptides were diluted to the working concentrations with R-10 medium and added at the beginning of the 4-hour incubation period. For the determination of maximal release, 1% Triton X-100 was added to separate wells. Plates were then centrifuged for 2 min. to increase cellular contact before the 4-hour incubation period. After incubation, 75 μl supernatant from each well was collected and the amount of ^51Cr was counted using a TopCount Scintillation Counter. The degree of cell lysis was calculated using the formula below: [formula]

[5] = biological target: T2, heme oxygenase (HO, hsp32) (Mus musculus, UniProt P14901); assay: Heme oxygenase activity in spleen homogenate (bilirubin formation); format: biochemical; details: control peptide
T2 construct: Spleen homogenates were used as the source of HO for all activity measurements; from tissue; host or cells: mouse spleen homogenate
T2 sequence (P14901 1-289): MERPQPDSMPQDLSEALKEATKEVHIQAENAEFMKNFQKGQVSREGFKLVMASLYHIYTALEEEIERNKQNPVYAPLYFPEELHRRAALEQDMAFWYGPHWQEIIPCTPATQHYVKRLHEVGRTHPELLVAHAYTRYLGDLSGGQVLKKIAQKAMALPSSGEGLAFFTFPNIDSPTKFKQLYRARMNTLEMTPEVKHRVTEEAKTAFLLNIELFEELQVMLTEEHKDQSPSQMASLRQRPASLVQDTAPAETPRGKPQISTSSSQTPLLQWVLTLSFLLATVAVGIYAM
Description: The effect of the bc peptides on hsp32 (heme oxygenase) was evaluated by measuring heme oxygenase (HO) in the presence or absence of bc peptides. Specifically, mouse spleen samples were homogenized on ice in a Tris-Cl lysis buffer (pH 7.4) containing 0.5% Triton X-100 and protease inhibitors. Samples were frozen in small aliquots until use. Spleen homogenates were used as the source of HO for all activity measurements. Biliverdin reductase was purified from rat liver by the method described by Kutty and Maines, J. Biol Chem., 256:3956 (1981). HO activity was measured by mixing 100 μl of spleen homogenate with 0.8 mM NADPH, 0.8 mM glucose-6-phosphate, 1.0 unit G-6-P dehydrogenase, 1 mM MgCl2 and 10 μl of biliverdin reductase at 4° C. The reaction was initiated by the addition of Hemin (20 μl of 2.5 mM). The reaction mixture was incubated at 37° C. in the dark for 30 min. At the end of the incubation period, any insoluble material was centrifuged and supernatants were analyzed for bilirubin concentration by a modified procedure of Hillman and Beyer, Z. Klin. Chem. 5:92 (1981) (Sigma Diagnostics, kit #552). Controls included spleen samples in the absence of the NADPH generating system and all components of the reaction mixture in the absence of the spleen homogenates.

[6] = tested on: LPS-induced septic shock in mice; assay: LPS septic shock model, survival; format: in vivo, mouse; details: 20 mg/kg peptide in mannitol 16 h before 100 mg/kg LPS
From the text: Administration of LPS to mice provides an accepted animal model for septic shock (see Otterbein et al., Amer. J. Physiol. 272(2):1 (1997), Albrecht et al., Hepatology 26:1553-1559 (1997), Haziot et al., J. Immunol. 154:6529-6532 (1995) and Otterbein et al., Am. J. Respir. Cell Mol. Biol. 13:595-601 (1995)). To provide further evidence of the utility of bc peptides for the treatment of inflammatory responses and inflammatory conditions (such as septic shock), we tested the effect of bc peptides on the survival of mice following administration of LPS thereto. Specifically, mice were treated with 20 mg/kg of control peptide 2705 or bc peptide in mannitol or with mannitol alone. Sixteen hours after administration of the peptide in mannitol or mannitol alone, the mice were injected with 100 mg/kg LPS and survival of the mice was monitored twice daily.

[7] = tested on: TNF-α production by RAW264.7 macrophage cells; assay: LPS-stimulated TNF-α production, ELISA of culture supernatants; format: cell-based; details: 10 μg/ml LPS, 1 to 100 μM peptide, 24 hours
Description: In order to determine the effect of bc peptides on the production of inflammatory cytokines, RAW264.7 macrophage cells were stimulated in culture with 10 μg/ml bacterial lipopolysaccharide (LPS) to produce the inflammatory cytokine tumor necrosis factor-α (TNF-α) (see […] et al., J. Immunol. 153:1674 (1994) and Tonetti et al., Biochem. Biophys. Res. Comm. 230:636-640 (1997)), either in the absence or presence (1 to 100 μM) of test peptide. Following incubation for 24 hours, the amount of TNF-α in the culture supernatents was determined by ELISA.

Question: Which results are given for `CC[C@H](C)[C@H](NC(=O)[C@H](CCCNC(=N)N)NC(=O)[C@H](CC(C)C)NC(=O)[C@H](CC(N)=O)NC(=O)[C@H](CCC(=O)O)NC(=O)[C@@H](N)CCCNC(=N)N)C(=O)N[C@@H](C)C(=O)N[C@@H](CC(C)C)C(=O)N[C@@H](CCCNC(=N)N)C(=O)N[C@@H](Cc1ccc(O)cc1)C(N)=O` [2702.75-84, Arg-Glu-Asn-Leu-Arg-Ile-Ala-Leu-Arg-Tyr]?
Answer: effect on transplant survival over the control treatment ([1]; 40 mg/kg/day): no observable effect; heart allograft survival ([1]; 80 mg/kg/day (days 0-9), PBS/DMSO controls 8±1.4 days): 10.7±2.6 days; IC50 (recombinant hsc70; competition with 3 μM biotinylated-2702.75-84, 3 hrs room temperature, read-out: Half maximal inhibition (IC50) of binding of biotinylated-2702.75-84 to hsc70): 7 ± 3 µM; Graft survival (mean±SEM) ([2]; 1 μg peptide injected directly into the allograft, untreated controls 13.9±0.9): 13.3 ± 0.75 days; Graft survival (mean±SEM) ([2]; 400 μg peptide injected directly into the allograft): 22.0 ± 0.58 days

Question: REDLRTLLRY [compound 2705] was tested. Which “effect on T-cell proliferation” value [3] did it give?
Answer: no effect

Question: And the “effect on T-cell mediated target cell lysis” value [4]?
Answer: no effect

Question: What about the “effect on HO activity” value [5] of the same compound?
Answer: inactive

Question: And the “survival of mice after LPS” value [6]?
Answer: died on day one

Question: For RVNLPIALRY [D2RP, control peptide], which “inhibition of the production of TNF-α” value [7] is on record?
Answer: no ability to inhibit

Question: How did the “binding to hsc70 coated ELISA plates” value (recombinant hsc70; direct binding, streptavidin-HRP detection) turn out when “biotinylated-2702.75-84: peptide 2702.75-84 with biotin attached to the N-terminus via a six carbon spacer” was run?
Answer: dose dependent binding

Source: patent US6696545B1, “Cytomodulating lipophilic peptides for modulating immune system activity and inhibiting inflammation” (Sangstat Medical Corporation, priority 1997, dated 2004)
